Experiment [1] concerns DSE at parallel fiber to Purkinje cell synapses. The experiment is described as follows: depolarization-induced suppression of excitation (DSE) in acute cerebellar slices. The conditions noted are these: purkinje; bath application to cerebellar slices 30 min before recordings; read-out: half-maximal inhibition of DSE. An excerpt: Various forms of synaptic plasticity are regulated by 2-AG signaling, included depolarization-induced suppression of excitation (DSE) and inhibition (DSI). DSE was examined at parallel fiber (PF) to Purkinje cell (PC) synapses in acute cerebellar slices. A brief depolarization of PCs induced robust transient DSE at PF-PC synapses in vehicle treated cerebellar slices (FIG. 7A).

Experiment [2] deals with T1, DAGLβ (Mus musculus (Mouse), UniProt Q91WC9). The experiment is described as follows: in vivo inhibition, brain tissue analyzed by ABPP. The conditions noted are these: mice, intraperitoneal 3-50 mg/kg, 4 hr. The procedure:
(§1) Mice were administered DAGL test compounds and the activity and selectivity of compounds 14 and 17 in vivo was assessed.
(§2) Compound 14, 17 or vehicle was administered intraperitoneally to male C57BL/6 mice across a dose range of 3-50 mg/kg. After 4 hr, the mice were sacrificed and brain tissue analyzed by ABPP, generally as described in Example 16, with compound probe 58, HT-01 probe, and FP-Rh probe.

In experiment [3] the target is T2, DAGLα (Mus musculus (Mouse), UniProt Q6WQJ1). Kind of experiment: in vivo inhibition, brain tissue analyzed by ABPP. The following applies: male C57BL/6 mice, intraperitoneal, 4 hr; for ED50: mouse, ip. The procedure: as §1, §2
T2 sequence (Q6WQJ1 whole entry): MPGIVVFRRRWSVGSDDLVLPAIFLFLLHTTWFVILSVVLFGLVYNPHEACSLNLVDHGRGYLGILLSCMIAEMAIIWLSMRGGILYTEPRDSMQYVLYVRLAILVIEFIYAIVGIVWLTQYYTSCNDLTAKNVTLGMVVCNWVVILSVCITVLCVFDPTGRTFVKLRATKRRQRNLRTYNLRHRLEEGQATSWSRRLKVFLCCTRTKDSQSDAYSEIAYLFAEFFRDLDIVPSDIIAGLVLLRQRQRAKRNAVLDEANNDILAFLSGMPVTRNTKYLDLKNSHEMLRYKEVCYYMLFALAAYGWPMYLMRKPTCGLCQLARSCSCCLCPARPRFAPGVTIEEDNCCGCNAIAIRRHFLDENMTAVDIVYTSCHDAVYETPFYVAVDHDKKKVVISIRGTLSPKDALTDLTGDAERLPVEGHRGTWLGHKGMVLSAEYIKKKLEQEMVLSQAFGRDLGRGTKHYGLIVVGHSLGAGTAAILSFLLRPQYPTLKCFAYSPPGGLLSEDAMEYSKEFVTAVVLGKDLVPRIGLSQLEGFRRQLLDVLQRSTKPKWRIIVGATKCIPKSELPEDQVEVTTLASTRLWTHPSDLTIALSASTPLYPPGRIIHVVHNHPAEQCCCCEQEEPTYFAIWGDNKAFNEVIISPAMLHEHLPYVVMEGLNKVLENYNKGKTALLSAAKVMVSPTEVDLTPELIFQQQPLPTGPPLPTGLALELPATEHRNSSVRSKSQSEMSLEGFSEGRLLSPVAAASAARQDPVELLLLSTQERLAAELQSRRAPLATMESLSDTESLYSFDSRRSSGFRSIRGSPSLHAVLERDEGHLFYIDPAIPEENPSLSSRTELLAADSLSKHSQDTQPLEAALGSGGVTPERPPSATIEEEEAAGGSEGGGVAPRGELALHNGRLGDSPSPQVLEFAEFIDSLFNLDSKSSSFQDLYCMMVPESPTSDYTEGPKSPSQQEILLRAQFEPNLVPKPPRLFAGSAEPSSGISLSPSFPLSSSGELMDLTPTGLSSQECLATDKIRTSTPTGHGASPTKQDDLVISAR
The next experiment has as its target ABHD6 (Mus musculus (Mouse), UniProt Q8R2Y0). Kind of experiment: in vivo inhibition, brain tissue analyzed by ABPP. The following applies: mice, intraperitoneal 3-50 mg/kg, 4 hr. The procedure: as §1, §2
Experiment [4] deals with T1, DAGLβ. Kind of experiment: gel-based ABPP of mouse brain proteome, endogenous DAGLs, probe compound 58 and HT-01. The experiment is classed as biochemical. The procedure:
(§3) Compounds 14 and 17 were evaluated for activity and selectivity against endogenous DAGLs and other serine hydrolases in the mouse brain proteome using a ABPP of mouse brain proteome assay as described in Example 16. These experiments were performed using three different activity-based probesprobe compound 58 (targets DAGLα and DAGLβ), HT-01 (targets DAGLα and DAGLβ), and FP-Rh (broad-spectrum serine hydrolase-directed probe fluorophosphonate-rhodamine).
(§4) Data represent average values±SEM; n=3 per group. […] Compounds 14 and 17 had minimal and negligible binding, respectively, to cannabinoid CB1 (CB1R) and CB2 (CB2R) receptors as measured with a radioligand binding assay (IC50 values>1 μM) (data not shown).

The target in experiment [5] is T2, DAGLα. The experiment is described as above. The experiment is classed as biochemical. The procedure:
as §3, §4

The target of experiment [6] is T1, DAGLβ. Kind of experiment: in vivo ABPP coupled to quantitative mass spectrometry (FP-biotin, ReDiMe). The following applies: brain proteomes of treated mice. The procedure:
The extent of these target profiles were confirmed by performing ABPP coupled to high-resolution, quantitative mass spectrometry (MS). Briefly, brain proteomes from compound and vehicle-treated mice were incubated with the serine hydrolase directed activity-based probe FP-biotin, and probe-labeled enzymes were enriched by streptavidin chromatography, digested on bead with trypsin, and the resulting tryptic peptides modified by reductive dimethylation (ReDiMe) of lysine residues using isotopically heavy and light formaldehyde, respectively. In these experiments, inhibited serine hydrolases are identified as enzymes showing low heavy/light ReDiMe ratios.

The next experiment has as its target recombinant human DAGLα (Homo sapiens (Human), UniProt Q9Y4D2). The experiment is described as follows: SAG substrate assay (in vitro inhibition of 2-AG biosynthesis), membrane lysates from HEK293T cells. The experiment is classed as biochemical. The conditions noted are these: n=4, read-out: IC50, DAGLα conversion of SAG to 2-AG. The procedure: (§5) DAGL modulators were tested for in vitro inhibition of 2-AG biosynthesis using a 1-stearoyl-2-arachidonoyl-sn-glycerol (SAG) substrate assay in DAGL-transfected HEK293 cells.
(§6) The SAG substrate assay, as described in Journal of lipid research 56(4):927-935, was performed using the following assay conditions: 0.2 U/mL glycerol kinase (GK), glycerol-3-phosphate oxidase (GPO) and horseradish peroxidase (HRP), 0.125 mM ATP, 10 μM Amplifu™Red, 5% DMSO in a total volume of 200 μL. The assay additionally contained SAG, a DAGL modulator, and membrane lysates from HEK293T cells expressing recombinant human DAGLα or DAGLβ.
(§7) Membranes were prepared from HEK293T cells transiently transfected with DAGLα or DAGLβ plasmids encoding for full length DAGLα or DAGLβ, respectively (Angewandte Chemie 52(46):12081-12085; Journal of Medicinal Chemistry 57(15):6610-6622). Briefly, one day prior to transfection, 10^7 cells were seeded in a 15 cm petri dish. The seeded cells were transfected by the addition of a 3:1 mixture of polyethyleneimine (60 μg) and plasmid DNA (20 μg) in 2 mL serum free medium. The medium was refreshed after 24 hr, and after 72 hr the cells were harvested by suspending them in 20 mL medium. The suspension was centrifuged for 10 min at 1000 rpm, and the supernatant was removed. The cell pellet was stored at −80° C. until use. Cell pellets were thawed on ice and suspended in lysis buffer A (20 mM HEPES, 2 mM DTT, 0.25 M sucrose, 1 mM MgCl2, lx protease inhibitor cocktail (Roche cOmplete EDTA free), 25 U/μL Benzonase). The suspension was homogenized by polytrone (3×7 sec) and incubated for 30 min on ice. The suspension was subjected to ultracentrifugation (100,000×g, 30 min, 4° C., Beckman Coulter, Type Ti70 rotor) to yield the cytosolic fraction in the supernatant and the membrane fraction as a pellet. The pellet was resuspended in lysis buffer B (20 mM HEPES, 2 mM DTT, lx protease inhibitor cocktail (Roche cOmplete EDTA free)) and the protein concentration determined with Quick Start Bradford assay (Biorad). The protein fractions were diluted to a total protein concentration of 1 mg/mL and stored in small aliquots at −80° C. until use.

Another experiment has as its target recombinant human DAGLβ (Homo sapiens (Human), UniProt Q8NCG7). Described as above. It is filed as biochemical. The procedure:
as §5, §6, §7

In experiment [7] the test system is LPS-induced neuroinflammatory responses (brain lipids, cytokines, body temperature). Kind of experiment: LPS-induced neuroinflammatory responses in mouse brain. The experiment is classed as in vivo. The following applies: mice; for LPS-induced elevation in brain 2-AG / LPS-induced elevation in brain PGE2 / LPS-stimulated brain cytokines: 50 mg/kg i.p. 60-90 min before LPS 20 mg/kg i.p., 6 hr; for LPS-induced anapyrexia: 50 mg/kg i.p. before LPS; for brain 2-AG under basal control conditions / brain AA under basal control conditions / brain PGE2 under basal control conditions: 50 mg/kg i.p., no LPS. The procedure: The effects of pharmacological and genetic inactivation of DAGL activity on neuroinflammatory responses (brain prostaglandin and cytokine production) induced by high-dose lipopolysaccharide treatment was examined.
Mice were treated with compounds 14, 17, control compound 22 or vehicle (50 mg/kg, i.p) for 60-90 min, followed by LPS (20 mg/kg, i.p., 6 hr) or vehicle. The mice were subsequently sacrificed and their brain lipid and cytokine profiles analyzed. […] The LPS-induced elevations in both 2-AG and PGE2 were suppressed in compound 14 and compound 17 treated mice and DAGLα/mice, but not compound 22 treated mice. […] LPS-induced anapyrexia was blunted in compound 14 and 17 treated mice (FIG. 8E) and DAGLα−/− mice (FIG. 8F), but not compound 22 treated mice (FIG. 8E).

Read-outs that look alike come from different tables or passages of the source.

One may read the ED50 as the dose at which the effect has come halfway, by size or by number of responders. Read a high ED50 as a need for a large dose.

T1 sequence (Q91WC9 whole entry): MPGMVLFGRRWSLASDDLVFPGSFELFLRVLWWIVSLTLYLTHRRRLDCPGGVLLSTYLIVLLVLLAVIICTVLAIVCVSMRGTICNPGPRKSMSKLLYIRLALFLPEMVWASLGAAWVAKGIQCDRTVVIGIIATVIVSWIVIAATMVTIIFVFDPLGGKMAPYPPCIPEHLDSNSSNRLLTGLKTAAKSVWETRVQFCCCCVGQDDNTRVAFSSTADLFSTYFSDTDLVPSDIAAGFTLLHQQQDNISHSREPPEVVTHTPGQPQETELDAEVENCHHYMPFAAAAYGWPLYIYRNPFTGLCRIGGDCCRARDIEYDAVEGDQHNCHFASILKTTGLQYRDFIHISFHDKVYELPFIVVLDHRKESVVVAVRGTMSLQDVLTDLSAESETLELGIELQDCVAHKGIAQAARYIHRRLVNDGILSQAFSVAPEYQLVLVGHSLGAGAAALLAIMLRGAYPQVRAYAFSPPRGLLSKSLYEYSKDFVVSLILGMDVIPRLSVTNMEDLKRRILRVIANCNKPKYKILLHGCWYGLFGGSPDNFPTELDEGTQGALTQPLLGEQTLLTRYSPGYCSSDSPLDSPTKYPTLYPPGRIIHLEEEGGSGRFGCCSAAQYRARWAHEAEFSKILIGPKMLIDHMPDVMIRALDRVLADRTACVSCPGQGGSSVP
recombinant human DAGLα, sequence (Q9Y4D2 whole entry): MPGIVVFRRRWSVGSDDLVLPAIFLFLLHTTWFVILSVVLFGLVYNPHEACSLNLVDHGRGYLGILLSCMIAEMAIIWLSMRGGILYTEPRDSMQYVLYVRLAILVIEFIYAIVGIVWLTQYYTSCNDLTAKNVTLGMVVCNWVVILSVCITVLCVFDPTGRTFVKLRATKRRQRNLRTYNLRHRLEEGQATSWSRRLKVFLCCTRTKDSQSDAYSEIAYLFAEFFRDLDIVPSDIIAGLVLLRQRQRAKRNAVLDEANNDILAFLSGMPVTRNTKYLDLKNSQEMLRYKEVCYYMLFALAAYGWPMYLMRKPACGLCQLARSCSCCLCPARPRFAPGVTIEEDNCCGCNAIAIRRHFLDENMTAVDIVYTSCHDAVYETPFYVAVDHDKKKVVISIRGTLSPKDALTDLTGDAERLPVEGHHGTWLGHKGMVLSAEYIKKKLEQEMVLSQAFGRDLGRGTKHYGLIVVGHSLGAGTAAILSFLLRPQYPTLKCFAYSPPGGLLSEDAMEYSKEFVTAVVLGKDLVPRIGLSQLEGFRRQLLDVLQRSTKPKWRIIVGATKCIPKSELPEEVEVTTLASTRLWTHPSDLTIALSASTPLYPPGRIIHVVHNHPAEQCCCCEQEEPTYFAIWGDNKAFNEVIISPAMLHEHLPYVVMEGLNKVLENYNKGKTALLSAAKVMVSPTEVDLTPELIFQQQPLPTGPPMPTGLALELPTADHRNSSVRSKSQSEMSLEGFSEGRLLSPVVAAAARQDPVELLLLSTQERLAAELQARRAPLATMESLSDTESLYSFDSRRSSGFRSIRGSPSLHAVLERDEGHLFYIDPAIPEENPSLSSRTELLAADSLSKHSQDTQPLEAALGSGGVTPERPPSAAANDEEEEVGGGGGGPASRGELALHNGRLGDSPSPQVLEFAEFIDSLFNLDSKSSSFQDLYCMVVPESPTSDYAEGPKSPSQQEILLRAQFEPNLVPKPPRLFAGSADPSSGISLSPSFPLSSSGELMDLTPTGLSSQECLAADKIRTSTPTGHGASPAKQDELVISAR
ABHD6, sequence (Q8R2Y0 whole entry): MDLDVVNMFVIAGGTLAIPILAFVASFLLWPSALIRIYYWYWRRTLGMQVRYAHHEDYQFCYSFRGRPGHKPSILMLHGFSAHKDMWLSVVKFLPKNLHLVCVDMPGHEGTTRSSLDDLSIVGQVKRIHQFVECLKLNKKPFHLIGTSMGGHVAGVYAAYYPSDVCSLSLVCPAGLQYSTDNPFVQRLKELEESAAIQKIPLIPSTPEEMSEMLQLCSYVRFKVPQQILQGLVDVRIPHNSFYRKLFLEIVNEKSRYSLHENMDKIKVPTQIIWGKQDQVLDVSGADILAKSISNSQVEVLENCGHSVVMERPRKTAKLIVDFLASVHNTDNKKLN
recombinant human DAGLβ, sequence (Q8NCG7 whole entry): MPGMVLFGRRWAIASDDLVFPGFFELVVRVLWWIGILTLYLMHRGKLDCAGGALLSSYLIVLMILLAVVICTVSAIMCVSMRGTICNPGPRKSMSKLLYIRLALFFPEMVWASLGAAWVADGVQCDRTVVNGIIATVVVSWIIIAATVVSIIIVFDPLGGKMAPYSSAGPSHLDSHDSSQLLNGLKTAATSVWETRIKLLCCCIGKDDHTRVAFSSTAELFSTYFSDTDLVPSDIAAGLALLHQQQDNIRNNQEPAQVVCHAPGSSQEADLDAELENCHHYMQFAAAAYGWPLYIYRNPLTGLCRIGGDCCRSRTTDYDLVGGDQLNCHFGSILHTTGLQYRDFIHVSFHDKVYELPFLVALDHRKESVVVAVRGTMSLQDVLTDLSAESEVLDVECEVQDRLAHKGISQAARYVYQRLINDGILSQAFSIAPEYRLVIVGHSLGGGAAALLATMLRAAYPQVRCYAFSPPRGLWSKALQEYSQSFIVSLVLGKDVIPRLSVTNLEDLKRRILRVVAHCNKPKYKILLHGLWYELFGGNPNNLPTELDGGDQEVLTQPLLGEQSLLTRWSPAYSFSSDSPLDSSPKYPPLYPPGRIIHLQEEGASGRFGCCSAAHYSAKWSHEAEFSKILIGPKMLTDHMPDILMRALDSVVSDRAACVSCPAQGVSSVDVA

Take `C#CCO[C@@H]1CC[C@H](Cc2ccccc2)N(C(=O)n2ncc(C(O)(c3ccc(F)cc3)c3ccc(F)cc3)n2)C1` [Compound 14, ((2R,5R)-2-Benzyl-5-(prop-2-ynyloxy)piperidin-1-yl)(4-(bis(4-fluorophenyl)(hydroxy)methyl)-2H-1,2,3-triazol-2-yl)methanone]: the IC50 in [1] amounted to 1100 nM. At DAGLβ [2], the “inhibition of DAGLβ in vivo” value was “inhibited”. At DAGLα [3], the “dose with full inhibition of DAGLα” value lay within 30 to 50 mg/kg and the ED50 lay within 5 to 10 mg/kg. Further, on ABHD6, the “inhibition of ABHD6 in vivo” value is “inhibited”. Besides, on DAGLβ [4], the IC50 is 2.3 to 4.8 nM. This compound came in with an IC50 against DAGLα [5] of 0.5 to 1.2 nM. Moreover, the “inhibition of DAGLβ by quantitative MS” value against DAGLβ [6] is reported as “strongly”. Also, at recombinant human DAGLα, the IC50 turned out to be 6 nM. Further, the IC50 on recombinant human DAGLβ lay in the range of 3 to 8 nM. In experiment [7], the “LPS-induced elevation in brain 2-AG” value is recorded as “suppressed”, the “LPS-induced elevation in brain PGE2” value is listed as “suppressed”, the LPS-stimulated brain cytokines result is recorded as “reductions” and the LPS-induced anapyrexia entry is listed as “blunted”. In addition, in experiment [7], the “brain 2-AG under basal control conditions” value was “severely depleted”, the “brain AA under basal control conditions” value was “severely depleted” and the “brain PGE2 under basal control conditions” value is on record as “severely depleted”.
Turning to `CC(C)(C)OC(=O)N1CCN(C(=O)n2cc(-c3ccc(OC(F)(F)F)cc3)nn2)C(Cc2ccccc2)C1` (stereo not shown) [Compound 17, tert-Butyl 3-benzyl-4-(4-(4-(trifluoromethoxy)phenyl)-1H-1,2,3-triazole-1-carbonyl)piperazine-1-carboxylate], in experiment [1], the IC50 amounted to 180 nM. Also, the “inhibition of DAGLβ in vivo” value at DAGLβ [2] is “inhibited”. At DAGLα [3], the “dose with full inhibition of DAGLα” value lay in the range of 30 to 50 mg/kg and the ED50 lay within 5 to 10 mg/kg. Also, the “inhibition of ABHD6 in vivo” value on ABHD6 is listed as “inhibited”. Also, the IC50 at DAGLβ [4] (mouse brain proteome, probes 1 μM, 30 min, read-out: IC50, DAGLβ labeling by compound 58 and HT-01) is 2.3 to 4.8 nM. In addition, the IC50 on DAGLα [5] (mouse brain proteome, probes 1 μM, 30 min, read-out: IC50, DAGLα labeling by compound 58 and HT-01) lay within 0.5 to 1.2 nM. Besides, the “inhibition of DAGLβ by quantitative MS” value on DAGLβ [6] is “partially”. For the same compound, the IC50 on recombinant human DAGLα amounted to 6 nM. In addition, the IC50 on recombinant human DAGLβ lay in the range of 3 to 8 nM. Besides, in experiment [7], the “LPS-induced elevation in brain 2-AG” value is recorded as “suppressed”, the “LPS-induced elevation in brain PGE2” value is reported as “suppressed”, the LPS-stimulated brain cytokines result is given as “reductions” and the LPS-induced anapyrexia result is recorded as “blunted”. Besides, in experiment [7], the “brain 2-AG under basal control conditions” value was “severely depleted”, the “brain AA under basal control conditions” value was “severely depleted” and the “brain PGE2 under basal control conditions” value is “severely depleted”.

(Values after patent US10583137B2, “Triazole DAGLα inhibitors” (THE SCRIPPS RESEARCH INSTITUTE, priority 2015, dated 2020).)
